How the values were obtained:
[1] = biological target: T1, Cytochrome P450 2C9 (Homo sapiens, UniProt P11712); experiment: Binding affinity was measured on Cytochrome P450 2C9; type: ADME
[2] = biological target: T1, Cytochrome P450 2C9; experiment: Binding affinity measured on human cytochrome P450 2C9 (CYP2C9) enzyme
[3] = biological target: T1, Cytochrome P450 2C9; experiment: Binding affinity for human Cytochrome P450 2C9; type: ADME

T1 sequence (P11712 whole entry): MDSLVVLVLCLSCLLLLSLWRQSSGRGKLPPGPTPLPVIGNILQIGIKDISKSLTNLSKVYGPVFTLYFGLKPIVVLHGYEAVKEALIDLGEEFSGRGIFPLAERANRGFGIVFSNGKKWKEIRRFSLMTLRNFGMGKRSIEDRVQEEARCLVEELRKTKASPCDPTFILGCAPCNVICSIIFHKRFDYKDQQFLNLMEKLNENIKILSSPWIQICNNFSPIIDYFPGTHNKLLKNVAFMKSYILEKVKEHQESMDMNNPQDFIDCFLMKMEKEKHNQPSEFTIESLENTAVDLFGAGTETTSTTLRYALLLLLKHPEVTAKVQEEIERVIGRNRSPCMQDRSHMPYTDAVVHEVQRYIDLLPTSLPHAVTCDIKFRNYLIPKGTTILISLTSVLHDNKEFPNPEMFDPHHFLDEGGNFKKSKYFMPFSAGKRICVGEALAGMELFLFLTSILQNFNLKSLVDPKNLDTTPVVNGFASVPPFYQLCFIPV

Compound	Ki [1] [µM]	Ki [2] [µM]	other results
C[C@H](O)C[C@@H](c1ccccc1)c1c(O)oc2ccccc2c1=O	3	–	–
CC[C@H](c1ccccc1)c1c(O)oc2ccccc2c1=O (stereo in doubt; 8)	0.5	–	–
CC[C@H](c1ccccc1)c1c(OC)c2ccccc2oc1=O	13	–	–
CC(=O)c1ccc(S(=O)(=O)Nc2ccnn2-c2ccccc2)cc1	–	2.4	–
CC[C@H](c1ccccc1)c1c(O)oc2ccccc2c1=O (stereo in doubt; 9)	18	–	–
CC1(O)C[C@H](c2ccccc2)c2c(c3ccccc3oc2=O)O1 (stereo partly specified)	7	–	–
CC1(O)C[C@@H](c2ccccc2)c2c(c3ccccc3oc2=O)O1 (stereo partly specified)	25	–	–
O=C(O)Cc1ccccc1Nc1cc(Cl)ccc1Cl	–	2	–
CC[C@H](c1ccccc1)c1c(OC)oc2ccccc2c1=O	14	–	–
C[C@@H](O)C[C@H](c1ccccc1)c1c(O)oc2ccccc2c1=O	3	–	–
CO[C@@]1(C)C[C@@H](c2ccccc2)c2c(c3ccccc3oc2=O)O1 (stereo in doubt; 4)	7	–	–
C#Cc1ccc(S(=O)(=O)Nc2cc(C)on2)cc1	–	3	–
Cc1ccc(C)c(OCC(C)(C)C(=O)O)c1	–	15	–
CO[C@@]1(C)C[C@H](c2ccccc2)c2c(c3ccccc3oc2=O)O1	1.5	–	–
C#Cc1ccc2oc(O)c(C(C(C)=O)c3ccccc3)c(=O)c2c1 (stereo unspecified)	1.5	–	–
COc1c([C@H](CC(C)=O)c2ccccc2)c(=O)oc2ccccc12 (stereo in doubt; 14)	10	–	–
C#Cc1ccc(S(=O)(=O)NC(=O)NCc2ccccc2)cc1	–	25	–
O=S(=O)(Nc1ccnn1-c1ccccc1)c1ccccc1	–	2	–

Compound	Ki [1] [µM]	Ki [2] [µM]	other results
CO[C@@]1(C)C[C@@H](c2ccccc2)c2c(c3ccccc3oc2=O)O1 (stereo in doubt; 6)	1.1	–	–
C[C@H](O)C[C@H](c1ccccc1)c1c(O)oc2ccccc2c1=O	0.4	–	–
C#Cc1ccc(S(=O)(=O)NC(=O)NCC(C)C)cc1	–	48	–
[N-]=[N+]=Nc1ccc(S(=O)(=O)Nc2ccnn2-c2ccccc2)cc1	0.4	–	–
[N-]=[N+]=Nc1ccc2oc(O)c(Cc3c(O)oc4ccc(N=[N+]=[N-])cc4c3=O)c(=O)c2c1	3	–	–
CO[C@]1(C)C[C@@H](c2ccccc2)c2c(c3ccccc3oc2=O)O1	20	–	–
COc1c([C@H](CC(C)=O)c2ccccc2)c(=O)oc2ccccc12 (stereo in doubt; 15)	2.4	–	–
COc1oc2ccccc2c(=O)c1[C@@H](CC(C)=O)c1ccccc1	–	21	–
CC[C@@H](c1ccccc1)c1c(OC)c2ccccc2oc1=O	6	–	–
CC(C(=O)O)c1ccc(C(=O)c2cccs2)cc1 (stereo unspecified) [SUPROFEN]	–	45	–
COc1oc2ccccc2c(=O)c1[C@H](CC(C)=O)c1ccccc1	–	–	Ki [3]: 29 µM
C#Cc1ccc(C2(c3ccccc3)NC(=O)NC2=O)cc1 (stereo unspecified)	–	18	–
C#Cc1ccc(S(=O)(=O)NC(=O)NCCCC)cc1	–	18	–
O=S(=O)(Nc1ccnn1-c1ccccc1)c1ccc(O)cc1	–	6	–
C#Cc1ccc2c(=O)c(C(C(C)=O)c3ccccc3)c(O)oc2c1 (stereo unspecified)	1.1	–	–
C[C@@H](O)C[C@@H](c1ccccc1)c1c(O)oc2ccccc2c1=O	0.1	–	–
CC[C@@H](c1ccccc1)c1c(OC)oc2ccccc2c1=O	0.1	–	–
C#Cc1ccc(S(=O)(=O)NC(=O)Nc2ccccc2)cc1	–	7	–

— ChEMBL document CHEMBL1133779, “A refined 3-dimensional QSAR of cytochrome P450 2C9: computational predictions of drug interactions” (J Med Chem, 2000)
